The test system of experiment [1] is cellular histone deacetylase enzymatic activity in Jurkat E6-1 cells. As to the kind of experiment: Inhibition of cellular HDAC activity in Jurkat E6-1 cells, fluorogenic substrate Boc-Lys(Tfa)-AMC. Type of experiment: cell-based. Particulars: Homo sapiens, read-out: Cell IC50. Summed up: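 Jurkat E6.1 cells (75,000/well) were pre-treated with compound for 2 h at 37 °C, then given Boc-Lys(Tfa)-AMC (5× stock 500 μM) for 3 h. Cells were lysed with trypsin-containing buffer overnight, and released AMC fluorescence was read at Ex 355/Em 460 nm over a 16-point dilution series.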

Experiment [2] concerns the target human catalytic domain HDAC4 protein (amino acids 648-1032) (Homo sapiens (Human), UniProt P56524). The experiment can be described thus: Inhibition of HDAC4 catalytic domain enzymatic activity, fluorogenic substrate Boc-Lys(Tfa)-AMC. Particulars: HDAC4 catalytic domain enzyme, read-out: Biochemical HDAC4 IC50. From the text: Analysis of Inhibition of HDAC4 with Class IIa Histone Deacetylase (HDAC) Inhibitors
The potency of Class IIa Histone Deacetylase (HDAC) inhibitors is quantified by measuring the Histone Deacetylase 4 (HDAC4) catalytic domain enzymatic activity using the fluorogenic substrate, Boc-Lys(Tfa)-AMC. The substrate is deacetylated to Boc-Lys-AMC by HDAC4. Cleavage by trypsin results in the release of the fluorophore AMC from the deacetylated substrate. The fluorescence of the sample is directly related to the histone deacetylase activity in the sample.
Serially dilute HDAC inhibitor compounds. […] Stocks of 6 μl aliquots of the 10 mM compound in DMSO are prepared and stored at […]. From one stock aliquot of each compound to be tested and the reference compound, a 16-point serial dilution is prepared according to Table 1 using a 125 μl 16-channel Matrix multi-channel pipette (Matrix Technologies Ltd).
2 μl (200×) of each diluted solution and each control (full activity: 100% DMSO alone or full inhibition 1 mM) is stamped into V-bottomed polypropylene 384-well compound plates using either the Bravo (384-well head from Agilent) or 12.5 μl 16-channel Matrix multi-channel pipette (Matrix Technologies Ltd).
Prepare HDAC4 catalytic domain enzyme (0.2 μg/mL).
Prepare 5× ([…]) Boc-Lys(Tfa)-AMC Substrate. 5× (50 μM) substrate is prepared just prior to the addition to the assay. A 1 mM substrate stock is made by diluting a 100 mM Boc-Lys(Tfa)-AMC in DMSO solution 1:100 by adding it drop-wise to assay buffer (equilibrated to r.t.) while vortexing at slow speed to prevent precipitation. The 5× substrate is prepared by diluting the 1 mM substrate solution 1:20 by adding it drop-wise to assay buffer (equilibrated to r.t.) while vortexing at slow speed to prevent precipitation.
Prepare 3× (30 μM) Developer/Stop Solution.
Assay. 5 μl of each solution of 1:20 diluted compound from above is transferred to a clear bottomed, black, 384-well assay plate using the Bravo or the Janus (384-well MDT head from Perkin Elmer). Using a 16-channel Matrix multi-channel pipette, 35 μl of the working solution of HDAC4 catalytic domain enzyme (0.2 μg/mL in assay buffer) is transferred to the assay plate. […] The assay plate is then shaken for two minutes on an orbital shaker at 900 rpm (rotations per minute). Next the plate is incubated for 15 minutes at 37° C. The reaction is stopped by adding 25 μl of 3× (3 μM) developer/stop solution to the assay plates using either the Bravo, Janus or a 16-channel Matrix multi-channel pipette. Assay plates are then shaken for 5 minutes on an orbital shaker at 1200 rpm. Next, the assay plates are incubated at 37° C. for 1 hour in a tissue culture incubator.

As a reminder, the IC50 is the midpoint of a concentration-inhibition curve.

Structures are written as SMILES.

human catalytic domain HDAC4 protein (amino acids 648-1032), sequence (P56524 648-1032): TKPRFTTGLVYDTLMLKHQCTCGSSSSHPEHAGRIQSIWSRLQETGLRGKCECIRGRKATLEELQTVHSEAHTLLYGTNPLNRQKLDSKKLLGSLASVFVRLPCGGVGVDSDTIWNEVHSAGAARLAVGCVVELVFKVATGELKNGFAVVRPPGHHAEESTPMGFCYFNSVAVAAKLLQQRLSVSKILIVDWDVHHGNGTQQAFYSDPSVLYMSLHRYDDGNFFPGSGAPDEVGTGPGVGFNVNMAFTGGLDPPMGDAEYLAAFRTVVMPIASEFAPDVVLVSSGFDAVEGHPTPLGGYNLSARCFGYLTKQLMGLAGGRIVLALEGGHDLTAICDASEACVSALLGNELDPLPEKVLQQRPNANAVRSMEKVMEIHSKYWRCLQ

For the compound `Cc1c(F)cccc1[C@]1(C(=O)NO)CC[C@@H](c2ccc3c(c2)NCC(C)(C)O3)C1` (relative stereo) [Example 72], the IC50 was 470 nM in experiment [1] and 300 nM in experiment [2].
The corresponding values for `Cc1c(F)cccc1[C@]1(C(=O)NO)CC[C@H](c2ccc3c(c2)NCC(C)(C)O3)C1` (relative stereo) [Example 73] are 410 nM and 270 nM.
On to `Cc1c(F)cccc1[C@]1(C(=O)NO)CC[C@@H](c2ccc3nc(C(F)(F)F)[nH]c3c2)C1` (relative stereo) [Example 74, (1S,3R*)-1-(3-Fluoro-2-methylphenyl)-N-hydroxy-3-(2-(trifluoromethyl)-1H-benzo[d]imidazol-6-yl)cyclopentanecarboxamide], for which the IC50 in experiment [1] was found to be 110 nM; in experiment [2], 74 nM.
`Cc1c(F)cccc1[C@]1(C(=O)NO)CC[C@H](c2nc3ccccc3s2)C1` (relative stereo) [Example 75, (1S,3S*)-3-(Benzo[d]thiazol-2-yl)-1-(3-fluoro-2-methylphenyl)-N-hydroxycyclopentanecarboxamide]: the figures for the IC50 in experiment [1] and in experiment [2] were 160 nM and 80 nM, respectively.
For `Cc1c(F)cccc1[C@]1(C(=O)NO)CC[C@@H](c2nc3ccccc3s2)C1` (relative stereo) [Example 76, (1S,3R*)-3-(Benzo[d]thiazol-2-yl)-1-(3-fluoro-2-methylphenyl)-N-hydroxycyclopentanecarboxamide], in that order: 240 nM and 160 nM.
The corresponding values for `Cc1c(F)cccc1[C@]1(C(=O)NO)CC[C@H](c2ccc3nc(C4CC4)sc3c2)C1` (relative stereo) [Example 77, (1 S,3S*)-3-(2-cyclopropylbenzo[d]thiazol-6-yl)-1-(3-fluoro-2-methylphenyl)-N-hydroxycyclopentanecarboxamide] are 420 nM and 310 nM.
For `Cc1c(F)cccc1[C@]1(C(=O)NO)CC[C@@H](c2ccc3nc(C4CC4)sc3c2)C1` (relative stereo) [Example 78, (1 S,3R*)-3-(2-cyclopropylbenzo[d]thiazol-6-yl)-1-(3-fluoro-2-methylphenyl)-N-hydroxycyclopentanecarboxamide], in that order: 420 nM and 340 nM.
In the case of `Cc1c(F)cccc1[C@]1(C(=O)NO)CC[C@H](c2ccc3cnn(C)c3c2F)C1` (relative stereo) [Example 82, (1S,3S*)-3-(7-Fluoro-1-methyl-1H-indazol-6-yl)-1-(3-fluoro-2-methylphenyl)-N-hydroxycyclopentanecarboxamide], the IC50 in experiment [1] came out at 250 nM; in experiment [2] it was 110 nM.
For `Cc1c(F)cccc1[C@]1(C(=O)NO)CC[C@@H](c2ccc3cnn(C)c3c2F)C1` (relative stereo) [Example 83, (1S,3R*)-3-(7-Fluoro-1-methyl-1H-indazol-6-yl)-1-(3-fluoro-2-methylphenyl)-N-hydroxycyclopentanecarboxamide], in that order: 59 nM and 55 nM.
For `Cc1c(F)cccc1[C@]1(C(=O)NO)CC[C@H](c2ccc3ncccc3c2)C1` (relative stereo) [Example 84, (1S,3S*)-1-(3-Fluoro-2-methylphenyl)-N-hydroxy-3-(quinolin-6-yl)cyclopentanecarboxamide], in that order: 180 nM and 48 nM.
For `Cc1c(F)cccc1[C@]1(C(=O)NO)CC[C@@H](c2ccc3ncccc3c2)C1` (relative stereo) [Example 85, (1 S,3R*)-1-(3-Fluoro-2-methylphenyl)-N-hydroxy-3-(quinolin-6-yl)cyclopentanecarboxamide], in that order: 120 nM and 62 nM.
In the case of `Cc1c(F)cccc1[C@]1(C(=O)NO)CC[C@@H](N2CCOCC2)C1` (relative stereo) [Example 89, (1S,3R*)-1-(3-fluoro-2-methylphenyl)-N-hydroxy-3-morpholinocyclopentanecarboxamide], the IC50 in experiment [1] is 7300 nM; in experiment [2] it was 1100 nM.
With `Cc1c(F)cccc1[C@]1(C(=O)NO)CC[C@H](N2CCOCC2)C1` (relative stereo) [Example 90, (1S,3S*)-1-(3-Fluoro-2-methylphenyl)-N-hydroxy-3-morpholinocyclopentanecarboxamide], the figures for the IC50 in experiment [1] and in experiment [2] were 24000 nM and 2500 nM, respectively.
For `Cc1c(F)cccc1[C@]1(C(=O)NO)CC[C@H](c2cncc(F)c2)C1` (stereo in doubt) [Example 9, (1S,3S*)-1-(3-fluoro-2-methyl-phenyl)-3-(5-fluoropyridin-3-yl)-N-hydroxycyclopentanecarboxamide], in that order: 1280 nM and 150 nM.
For `Cc1c(F)cccc1[C@]1(C(=O)NO)CC[C@@H](c2cncc(F)c2)C1` (stereo in doubt) [Example 10, (1S,3R*)-1-(3-fluoro-2-methyl-phenyl)-3-(5-fluoropyridin-3-yl)-N-hydroxycyclopentanecarboxamide], in that order: 1390 nM and 140 nM.
Take `Cc1c(F)cccc1[C@@]1(C(=O)NO)CC[C@H](c2cncc(F)c2)C1` (stereo in doubt) [Example 39, (1R,3S*)-1-(3-fluoro-2-methylphenyl)-3-(5-fluoropyridin-3-yl)-N-hydroxycyclopentanecarboxamide]: the values for the half-maximal inhibitory concentration (IC50) in experiment [1] and in experiment [2] were 8400 nM and 720 nM, respectively.
The corresponding values for `Cc1c(F)cccc1[C@@]1(C(=O)NO)CC[C@@H](c2cncc(F)c2)C1` (stereo in doubt) [Example 40, (1R,3R*)-1-(3-fluoro-2-methylphenyl)-3-(5-fluoropyridin-3-yl)-N-hydroxycyclopentanecarboxamide] are 8400 nM and 3600 nM.
As for `Cc1c(F)cccc1C1(C(=O)NO)CCC(c2cccnc2)C1` (stereo not drawn) [Example 1, 1-(3-fluoro-2-methylphenyl)-N-hydroxy-3-(pyridin-3-yl)cyclopentanecarboxamide], the IC50 turned out to be 1230 nM in experiment [1] and 190 nM in experiment [2].
Consider `O=C(NO)[C@]1(c2ccccc2)CC[C@@H](c2cncc(F)c2)CC1` [Example 13, (1 r,4r)-4-(5-fluoropyridin-3-yl)-N-hydroxy-1-phenylcyclohexanecarboxamide], for which the IC50 in experiment [1] amounted to 48800 nM; in experiment [2], 6400 nM.
For the compound `O=C(NO)[C@]1(c2ccccc2)CC[C@H](c2cncc(F)c2)CC1` [Example 14, (1s,4s)-4-(5-fluoropyridin-3-yl)-N-hydroxy-1-phenylcyclohexanecarboxamide], the IC50 in experiment [1] and in experiment [2] was above 50000 nM each time.
Take `O=C(NO)C1(c2cccc(F)c2F)CCCC1` [Example 15, 1-(2,3-difluorophenyl)-N-hydroxycyclopentanecarboxamide]: the half-inhibitory concentration (IC50) turned out to be 18500 nM in experiment [1] and 2500 nM in experiment [2].
`O=C(NO)C1(c2cccc3c2OCC3)CCCC1` [Example 16, 1-(2,3-dihydrobenzofuran-7-yl)-N-hydroxycyclopentanecarboxamide]: the IC50 in experiment [1] and in experiment [2] was above 50000 nM each time.
`Cc1c(Cl)cccc1C1(C(=O)NO)CCCC1` [Example 17, 1-(3-chloro-2-methylphenyl)-N-hydroxycyclopentanecarboxamide]: the IC50 worked out at 2530 nM in experiment [1] and 280 nM in experiment [2].
As to `Cc1c(F)cccc1C1(C(=O)NO)CCCC1` [Example 18, 1-(3-fluoro-2-methylphenyl)-N-hydroxycyclopentanecarboxamide], the IC50 in experiment [1] is 1700 nM; in experiment [2], 270 nM.

The values are drawn from patent US9783488B2 (CHDI Foundation, Inc., priority 2013, dated 2017).
